What was measured:
S. mutans (ATCC #25175) [1] = experiment: Inhibition of biofilm formation, crystal violet staining in saliva-coated 96-well plate; assay type: cell-based, Streptococcus mutans; settings: for Inhibition against biofilm formation (in words): 1 wt % glucose and 2 wt % Amadori compound, versus no Amadori compound; for Average absorbance (590 nm), amount of biofilm: test sample 1 wt % glucose and 2 wt % Amadori compound, co-incubated overnight at 37° C., lower absorbance = less biofilm
Protocol: In this Example, the ability of Amadori compound from the reaction of glucose with glycine to inhibit biofilm formation was investigated. A sample of cultured S. mutans (ATCC #25175) bacterium was grown in TSB medium overnight and subsequently centrifuged to form a pellet, and then the centrifuged S. mutans was re-suspended with TSB (trypticase soy broth) containing 1% glucose and adjusted to OD610=0.5 (a concentration with an optical reading of 0.5 at 610 nm for a 1-cm light path). A 50 microliter sample of the re-suspended S. mutans (OD610=0.5) was co-incubated with a 50 microliter test sample. The test sample contained 1 wt % of glucose and 2 wt % of Amadori compound from the reaction of glucose with glycine. The 100 μL total of the re-suspended S. mutans (OD610=0.5) and test sample, representing a clarified saliva, was co-incubated in a 96-well plate which was pre-coated with the clarified saliva and then left overnight at 37° C. After the co-incubation period, the supernatant liquid was aspirated from the well plate. A 50 microliter amount of crystal violet was added to each well and permitted to stain any biofilm for a period of 10 minutes. The well plate was washed with 100 μL of PBS. The amount of biofilm was determined by irradiating the well plate with electromagnetic radiation having a wavelength of 590 nm and measuring the absorbance. The lower the absorbance reading, the less the amount of biofilm detected.

S. mutans (ATCC #25175) [2] = experiment: Inhibition of glucose metabolism with Streptococcus mutans (GC-MS of remaining α- and β-glucose); assay type: cell-based; settings: for Glucose inhibition (%) from Example 5: versus Comparative Example 1 (no Amadori compound)
Protocol: In this Example, the ability of Amadori compound from the reaction of glucose with glycine to inhibit glucose metabolism with Streptococcus mutans was investigated. A stock glucose solution of 0.4 wt % glucose dissolved in distilled water (0.4 g/100 mL) was prepared. A stock Amadori compound from the reaction of glucose with glycine solution of 4.0 wt % Amadori compound from the reaction of glucose with glycine dissolved in distilled water (0.4 g/10 mL) was prepared. A bacterial solution was prepared as follows: S. mutans (ATCC #25175) was cultured overnight in TSB medium and then the resultant bacterial pellet was re-suspended bacterial to OD610=0.8 (a concentration with an optical reading of 0.8 at 610 nm for a 1-cm light path) with phosphate buffered saline (pH=7.4) (PBS). In accordance with Example 5, a test sample comprising 1 mL of the bacterial solution, 0.5 mL of the Amadori compound from the reaction of glucose with glycine solution and 0.5 mL of the glucose solution was subjected to incubation at a temperature of 37° C., representing normal human body temperature. Then, 200 μL of the test sample was transferred into individual HPLC vials after 10 minutes of the incubation period, after 30 minutes of the incubation period, and after 60 minutes of the incubation period. The HPLC vial cap was used to seal the vial. Immediately the HPLC vials were placed in a 100° C. water bath for about 5 minutes to denaturize the enzymes. The resultant products were subjected to gas chromatography-mass spectrometry (GC-MS) testing and analysis to determine the amounts of the α- and β-glucose forms present. In Table 1, the number of counts during MS detection for each respective α- and β-glucose form detected in the respective sample at the respective incubation time is indicated, the number of counts representing the amount of the respective glucose form present. In Comparative Example 1, the testing of Example 5 was repeated but on a control sample comprising 1 mL of the bacterial solution, 0.5 mL of the glucose solution and 0.5 mL of deionized water. In other words, Comparative Example 1 had no Amadori compound from the reaction of glucose with glycine. The control sample was also subjected to incubation at a temperature of 37° C. for the same respective time periods.

[3] = 10 minutes incubation at 37° C., same sample
[4] = 30 minutes incubation at 37° C., same sample
[5] = 60 minutes incubation at 37° C., same sample

Row | Structure (SMILES) | Inhibition against biofilm formation (in words) (S. mutans (ATCC #25175) [1]; listed as Amadori compound from the reaction of glucose with arginine) | Average absorbance (590 nm), amount of biofilm (S. mutans (ATCC #25175) [1]) | Inhibition against biofilm formation (in words) (S. mutans (ATCC #25175) [1]; listed as Amadori compound from the reaction of glucose with glutamic acid) | Inhibition against biofilm formation (in words) (S. mutans (ATCC #25175) [1]; listed as Amadori compound from the reaction of glucose with glycine) | α-glucose, number of counts during MS detection (S. mutans (ATCC #25175) [2]; 10 minutes incubation at 37° C., 1 mL bacterial solution + 0.5 mL 4.0 wt % compound solution + 0.5 mL 0.4 wt % glucose solution) | Total glucose (α + β), number of counts during MS detection (S. mutans (ATCC #25175) [2]; [3]) | β-glucose, number of counts during MS detection (S. mutans (ATCC #25175) [2]; [3]) | Glucose inhibition (%) from Example 5 (S. mutans (ATCC #25175) [2]; 10 minutes incubation) | Total glucose (α + β), number of counts during MS detection (S. mutans (ATCC #25175) [2]; [4]) | α-glucose, number of counts during MS detection (S. mutans (ATCC #25175) [2]; [4]) | β-glucose, number of counts during MS detection (S. mutans (ATCC #25175) [2]; [4]) | Glucose inhibition (%) from Example 5 (S. mutans (ATCC #25175) [2]; 30 minutes incubation) | Total glucose (α + β), number of counts during MS detection (S. mutans (ATCC #25175) [2]; [5]) | α-glucose, number of counts during MS detection (S. mutans (ATCC #25175) [2]; [5]) | β-glucose, number of counts during MS detection (S. mutans (ATCC #25175) [2]; [5]) | Glucose inhibition (%) from Example 5 (S. mutans (ATCC #25175) [2]; 60 minutes incubation) | Inhibition of glucose metabolization / degradation (in words) (S. mutans (ATCC #25175) [2]; co-incubated with S. mutans and glucose, versus no Amadori compound) | Inhibition of glucose metabolism (S. mutans (ATCC #25175) [2]; within the incubation time period of from 10 to 60 minutes)
1 | N=C(N)NCCC[C@H](NCC(=O)[C@@H](O)[C@H](O)[C@H](O)CO)C(=O)O [Example 2, N-(1-deoxy-fructos-1-yl) arginine] | relatively weak inhibition | 1.2808 |  |  |  |  |  |  |  |  |  |  |  |  |  |  |  | 
2 | O=C(O)CC[C@H](NCC(=O)[C@@H](O)[C@H](O)[C@H](O)CO)C(=O)O [Example 4, N-(1-deoxy-fructos-1-yl)glutamic acid] |  | 0.5476 | very strong inhibition |  |  |  |  |  |  |  |  |  |  |  |  |  |  | 
3 | O=C(O)CNCC(=O)[C@@H](O)[C@H](O)[C@H](O)CO [Example 1, N-(1-deoxy-fructos-1-yl)glycine] |  | 0.2885 |  | very strong inhibition | 1753564 counts | 5564912 counts | 3811348 counts | 56.4% | 6220880 counts | 1912144 counts | 4308736 counts | 59.9% | 5403991 counts | 1724203 counts | 3679788 counts | 70.1% | inhibited glucose metabolization | at least 56%
